Test results from ChEMBL document CHEMBL1157348, “The alkaloid conessine and analogues as potent histamine H3 receptor antagonists” (J Med Chem, 2008).

Experiments:
[1] = biological target: T1, Muscarinic acetylcholine receptor M1 (Homo sapiens, UniProt P11229); assay: Binding affinity at muscarinic M1 receptor
T1 sequence (P11229 whole entry): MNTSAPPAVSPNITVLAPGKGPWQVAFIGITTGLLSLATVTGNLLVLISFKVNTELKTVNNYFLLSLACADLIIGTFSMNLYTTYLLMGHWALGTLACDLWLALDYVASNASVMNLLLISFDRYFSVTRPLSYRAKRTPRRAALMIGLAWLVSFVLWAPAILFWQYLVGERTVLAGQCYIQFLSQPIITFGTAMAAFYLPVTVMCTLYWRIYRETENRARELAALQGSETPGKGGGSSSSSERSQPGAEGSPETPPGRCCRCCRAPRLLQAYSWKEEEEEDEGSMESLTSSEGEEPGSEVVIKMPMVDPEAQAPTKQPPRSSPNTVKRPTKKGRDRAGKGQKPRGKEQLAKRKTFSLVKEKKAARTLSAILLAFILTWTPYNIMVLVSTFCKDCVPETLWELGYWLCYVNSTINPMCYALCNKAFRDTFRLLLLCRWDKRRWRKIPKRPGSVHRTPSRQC

[2] = biological target: T2, Alpha-2C adrenergic receptor (Homo sapiens, UniProt P18825); assay: Displacement of [3H]rauwolscine from human adrenergic alpha 2C4 receptor expressed in mouse LTK- cells; format: cell-based
T2 sequence (P18825 whole entry): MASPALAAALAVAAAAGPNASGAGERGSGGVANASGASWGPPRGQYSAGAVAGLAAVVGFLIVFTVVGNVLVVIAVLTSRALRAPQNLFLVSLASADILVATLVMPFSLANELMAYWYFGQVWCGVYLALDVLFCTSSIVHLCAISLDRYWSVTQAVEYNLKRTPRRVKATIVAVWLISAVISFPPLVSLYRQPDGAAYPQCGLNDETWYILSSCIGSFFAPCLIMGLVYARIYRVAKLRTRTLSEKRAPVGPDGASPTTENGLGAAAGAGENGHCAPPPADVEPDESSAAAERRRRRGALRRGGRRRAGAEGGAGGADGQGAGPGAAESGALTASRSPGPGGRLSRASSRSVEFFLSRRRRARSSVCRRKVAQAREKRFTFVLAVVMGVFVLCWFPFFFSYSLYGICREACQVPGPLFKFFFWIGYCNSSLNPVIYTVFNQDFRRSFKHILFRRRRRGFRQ

Histamine H3 receptor [3] = biological target: T3, Histamine H3 receptor (Homo sapiens, UniProt Q9Y5N1); assay: Antagonist activity at human full length histamine H3 receptor expressed in HEK293 cells assessed as inhibition of (R)-alpha-methylhistamine-induced intracellular calcium release by FLIPR; format: functional, cell-based
T3 sequence (Q9Y5N1 whole entry): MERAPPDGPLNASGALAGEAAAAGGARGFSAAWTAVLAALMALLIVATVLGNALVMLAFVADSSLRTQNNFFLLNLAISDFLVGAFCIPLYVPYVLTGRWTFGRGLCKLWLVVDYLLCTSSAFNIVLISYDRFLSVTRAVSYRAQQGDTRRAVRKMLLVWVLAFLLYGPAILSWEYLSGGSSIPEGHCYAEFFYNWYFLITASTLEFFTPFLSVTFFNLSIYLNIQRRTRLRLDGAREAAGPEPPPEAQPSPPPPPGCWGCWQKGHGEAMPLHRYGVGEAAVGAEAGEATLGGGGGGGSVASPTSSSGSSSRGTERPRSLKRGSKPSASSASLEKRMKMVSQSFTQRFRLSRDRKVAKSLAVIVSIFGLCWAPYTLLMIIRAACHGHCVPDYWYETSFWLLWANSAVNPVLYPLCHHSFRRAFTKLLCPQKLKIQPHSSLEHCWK

Histamine H3 receptor [4] = biological target: T3, Histamine H3 receptor; assay: Displacement of [3H]NAMH from human full length histamine H3 receptor expressed in rat C6 cells; format: cell-based
Histamine H1 receptor = Histamine H1 receptor (Homo sapiens, UniProt P35367); assay: Displacement of [3H]mepyramine from human histamine H1 receptor; settings: read-out: Ki
Histamine H1 receptor, sequence (P35367 whole entry): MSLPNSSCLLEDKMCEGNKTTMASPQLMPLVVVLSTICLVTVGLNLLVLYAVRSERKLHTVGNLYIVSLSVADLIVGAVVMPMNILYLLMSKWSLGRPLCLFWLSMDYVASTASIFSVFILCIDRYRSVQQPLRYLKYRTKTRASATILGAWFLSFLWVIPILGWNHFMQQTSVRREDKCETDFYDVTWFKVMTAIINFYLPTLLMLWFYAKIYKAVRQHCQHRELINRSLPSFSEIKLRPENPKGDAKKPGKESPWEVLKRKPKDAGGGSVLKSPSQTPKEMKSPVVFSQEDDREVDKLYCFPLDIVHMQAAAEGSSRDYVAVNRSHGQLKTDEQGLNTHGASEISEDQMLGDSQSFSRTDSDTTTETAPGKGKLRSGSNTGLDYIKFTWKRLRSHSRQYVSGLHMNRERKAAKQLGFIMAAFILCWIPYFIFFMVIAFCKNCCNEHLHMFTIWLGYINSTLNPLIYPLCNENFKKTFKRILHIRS

Progesterone receptor = biological target: T4, Progesterone receptor (Homo sapiens, UniProt P06401); assay: Binding affinity at progesterone receptor
T4 sequence (P06401 whole entry): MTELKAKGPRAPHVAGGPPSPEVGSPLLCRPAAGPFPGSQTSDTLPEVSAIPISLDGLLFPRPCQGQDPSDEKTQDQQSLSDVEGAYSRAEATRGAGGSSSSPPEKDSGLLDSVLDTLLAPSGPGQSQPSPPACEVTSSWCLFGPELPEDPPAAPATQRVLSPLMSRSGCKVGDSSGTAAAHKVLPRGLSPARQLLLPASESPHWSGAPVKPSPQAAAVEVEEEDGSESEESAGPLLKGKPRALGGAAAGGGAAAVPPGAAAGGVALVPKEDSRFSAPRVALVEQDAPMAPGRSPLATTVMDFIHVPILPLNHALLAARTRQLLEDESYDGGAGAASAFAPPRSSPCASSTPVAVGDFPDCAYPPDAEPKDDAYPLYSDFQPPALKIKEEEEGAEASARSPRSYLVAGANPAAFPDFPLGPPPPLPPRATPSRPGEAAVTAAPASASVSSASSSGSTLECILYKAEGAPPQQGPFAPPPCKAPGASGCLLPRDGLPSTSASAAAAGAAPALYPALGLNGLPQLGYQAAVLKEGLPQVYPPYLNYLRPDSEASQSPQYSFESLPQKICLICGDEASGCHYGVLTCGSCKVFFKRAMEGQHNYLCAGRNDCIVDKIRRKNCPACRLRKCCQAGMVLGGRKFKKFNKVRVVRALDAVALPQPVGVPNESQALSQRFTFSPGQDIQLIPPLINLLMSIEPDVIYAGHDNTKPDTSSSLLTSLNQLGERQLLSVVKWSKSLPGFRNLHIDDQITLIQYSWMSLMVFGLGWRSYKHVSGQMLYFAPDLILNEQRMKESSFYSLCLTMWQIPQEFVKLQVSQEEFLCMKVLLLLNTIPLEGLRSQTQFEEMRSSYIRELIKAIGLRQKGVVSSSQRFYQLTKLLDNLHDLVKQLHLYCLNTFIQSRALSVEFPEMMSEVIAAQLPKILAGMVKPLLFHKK

[5] = Selectivity ratio for human adrenergic alpha 2C4 receptor over human H3 receptor
[6] = Binding affinity at dopamine receptor
[7] = Half life in rat; format: ADME, organism-based; settings: in vivo
Phospholipidosis = assay: In vitro phospholipidosis index at 6.25 uM compared to amiodarone at 10 uM; format: ADME, cell-based, Hepatocyte; settings: hepatocytes
Histamine H3 receptor [8] = biological target: T3, Histamine H3 receptor; assay: Antagonist activity at H3 receptor assessed as inhibition of [35S]gammaGTP binding relative to control

CN[C@@H](C(=O)N(C)[C@H]1CC[C@@]2(C)C(=CC[C@H]3[C@@H]4CC[C@@H]5[C@H](C)N(C)C[C@@]54CC[C@@H]32)C1)C(C)C
Ki [1]: 0.011 µM
Ki [2]: 0.0776 µM
Kb (Histamine H3 receptor [3]): 0.004 µM
Ki (Histamine H3 receptor [4]): 0.00021 µM
Ki (Histamine H1 receptor): > 10 µM
Ki (Progesterone receptor): > 30 µM
Selectivity ratio [5]: 370
Ki [6]: > 10 µM
half-life [7]: 77 h
Phospholipidosis_index (Phospholipidosis): 0.42
EC50 (Histamine H3 receptor [8]): 0.0033 µM
